Results from US12427346B2, “P62 ligand compound, and composition for preventing, ameliorating or treating proteinopathies comprising the same” (AUTOTAC INC., priority 2018, dated 2025).

What was measured:
p62 and LC3 = assay: Autophagy activity by immunofluorescence staining and confocal microscopy (Experimental Example 5); format: cell-based, human; conditions: HeLa cells, 5 uM, 24 hours, FIG. 6
Procedure: In order to confirm the p62 protein activity and the activity level of autophagy phenomenon by the compounds (Examples 1-25), immunofluorescence staining was performed using p62 and LC3 as markers. In order to confirm the p62 activity and the activity level of autophagy phenomenon by new p62 ligands and isomers thereof in cultured cells, HeLa cell line, which is a cell line derived from cervical cancer patient, was treated with the novel p62 ligand compounds (YTK-1205, YTK-1305, YTK-2205, YTK-3305, YTK-105, YTK-205, YT 5-1, YT 9-1, YT 5-2, YT 9-2, YT 8-2, YT 8-1, YTK-107, YTK-207) and cultured. Thereafter, as markers of the autophagy phenomenon, the expression level and location of LC3 puncta and the local co-existence with p62 puncta were observed.
For immunofluorescence staining, a cover glass was placed on a 24-well plate, cells were dispensed, cultured for 24 hours, and then treated with 5 uM of the novel p62 ligands according to the present invention. For the action of the compounds, additional cultures were performed for 24 hours, and then the medium was removed. Cells were fixed using formaldehyde at room temperature. In order to prevent non-specific staining, the cells were allowed to react with a blocking solution at room temperature for 1 hour, and then treated with LC3 antibody diluted at a certain ratio using the blocking solution, and allowed to reacted at room temperature for 1 hour. The antibody-treated cells were washed three times with PBS, and goat-derived secondary antibody was diluted at a certain ratio using the blocking solution, and then allowed to react at room temperature for 30 minutes. The cells were washed again with PBS three times, and for intracellular nuclear staining, the expression level, intracellular puncta formation and intracellular coexistence level of p62 and LC3 were observed through a confocal microscopy after DAPI staining.

LC3 [1] = assay: Autophagy activity in cultured cells by immunoblotting, treatment time (Experimental Example 3); format: cell-based, human; conditions: HeLa cells; 5 μM for 1, 3, 6, 12, 24, 48 hours or 10 μM for 24 hours; immunoblot, FIG. 4
Procedure: In order to investigate the autophagy activity efficacy by the compounds (Examples 1-25), immunoblotting was performed in the same manner as in Experimental Example 2 using LC3 as a marker. As for the difference, in order to evaluate the treatment time required for activation and the activity retention time, 5 μM of the representative compounds selected among the present compounds (Example 5 (YTK-1005), Example 6 (YTK-1205), Example 7 (YTK-1305), Example 2 (YTK-2205), Example 3 (YTK-3305), Example 14 (YTK-1108), Example 8 (YTK-105), Example 9 (YTK-205)) were treated for 1, 3, 6, 12, 24, 48 hours. On the other hand, 10 μM of the representative compounds selected among the present compounds (Example 10 (YT 5-1), Example 11 (YT 5-2), Example 16 (YT 8-8), Example 15 (YT 8-7), Example 17 (YTK-107), Example 18 (YTK-207), Example 20 (ATB10041), Example 21 (ATB10042), Example 22 (ATB10043), Example 23 (ATB10044), Example 24 (ATB10045), Example 25 (ATB10046)) were treated for 24 hours.

p62 protein = biological target: T1, p62 protein (Homo sapiens, UniProt Q13501); assay: Oligomerization activity of p62 protein by immunoblotting (Experimental Example 1); format: cell-based; conditions: HEK293 cell lysate treated with test compounds at room temperature for 2 hours; immunoblot, FIG. 2
T1 construct: endogenous in cells; host or cells: HEK293 (lysate treated with compounds)
Description: In order to evaluate the p62 protein oligomerization activity efficacy by the compounds (Examples 1-25), HEK293 cell line, which is human embryonic kidney-derived cell, was collected. As the representative compounds among the present compounds, the compounds of Examples 1, 2, 3, 5, 6, 7, 8, 9, 12, and 13 (Example 10 (YT-5-1), Example 11 (YT-5-2), Example 12 (YT 5-7), Example 13 (YT 5-8), Example 15 (YT-8-7), Example 16 (YT-8-8), Example 17 (YTK-107), Example 18 ([…]), Example 20 (ATB10041), Example 21 (ATB10042), Example 22 (ATB10043), Example 23 (ATB10044), Example 24 (ATB10045) and Example 25 (ATB10046)) were selected. In order to measure intracellular p62 protein activation and oligomerization according to the treatment with these selected representative compounds, the respective cells were dispensed into a 100 pi dish. The cells were collected after further culturing for 24 hours so that the cells were completely attached to the surface of the plate. 100 ul of lysis buffer (20 mM Tris, pH 7.4), 150 mM NaCl, 1% Triton X-100, 2 mM NaF, 2 mM EDTA, 2 mM beta-glycerophosphate, 5 mM sodium orthovanadate, 1 mM PMSF, leupeptin, aprotinin) were injected into each sample and the cells were lysed. Based on the measured total protein concentration, each sample was treated with test compounds at room temperature for 2 hours, and then a sample buffer was added and allowed to react at 95° C. for 10 minutes. 25 ul was taken from the samples after the reaction, and dispensed into each well of acrylamide gel, and then immunoblotting was performed.

LC3 [2] = assay: Autophagy activity in cultured cells by immunoblotting, concentration series (Experimental Example 2); format: cell-based, human; conditions: HeLa cells; 1, 2, 5, 10 and 20 μM, 24 hours; immunoblot, FIG. 3
Procedure: In order to evaluate the autophagy activity efficacy by the compounds (Examples 1-25), HeLa cell line, which is a cell line derived from a cervical cancer patient, was cultured using a DMEM medium containing 10% FBS and 1% streptomycin/penicillin in an incubator with 5% carbon dioxide. As the representative compounds among the present compounds, the compounds of Examples 1, 2, 3, 5, 6, 7, 8, 9, 12 and 13 (Example 5 (YTK-1005), Example 1 (YTK-1105), Example 6 (YTK-1205), Example 7 (YTK-1305), Example 2 (YTK-2205), Example 3 (YTK-3305), Example 8 (YTK-105), Example 9 (YTK-205), Example 14 (YTK-1108), Example 12 (YT 5-7), Example 13 (YT 5-8)), Example 20 (ATB10041), Example 21 (ATB10042), Example 22 (ATB10043), Example 23 (ATB10044), Example 24 (ATB10045), and Example 25 (ATB10046)) were selected. In order to measure autophagy activity according to the treatment with these selected representative compounds, the respective cells were dispensed into 6 well plates. Additional cultures were performed for 24 hours so that the cells were completely attached to the surface of the plate. To find the concentration at which the respective compounds could increase the phenomenon of autophagy, the test compounds were diluted at 1, 2, 5, 10 and 20 μM and treated. After treatment with the respective compounds, the cells were cultured again in a cell incubator for 24 hours, and then the cells were collected. To extract proteins from the collected cells, 100 ul of lysis buffer (20 mM Tris (pH 7.4), 150 mM NaCl, 1% Triton X-100, 2 mM NaF, 2 mM EDTA, 2 mM beta-glycerophosphate, 5 mM sodium orthovanadate, 1 mM PMSF, leupeptin, aprotinin) was injected into each sample, and cells were lysed. Based on the measured total protein concentration, a sample buffer was added to each sample and allowed to react at 100° C. for 5 minutes. 5 ul was taken from the samples after the reaction, and dispensed into each well of acrylamide gel, and then immunoblotting was performed.

T1 sequence (Q13501 whole entry): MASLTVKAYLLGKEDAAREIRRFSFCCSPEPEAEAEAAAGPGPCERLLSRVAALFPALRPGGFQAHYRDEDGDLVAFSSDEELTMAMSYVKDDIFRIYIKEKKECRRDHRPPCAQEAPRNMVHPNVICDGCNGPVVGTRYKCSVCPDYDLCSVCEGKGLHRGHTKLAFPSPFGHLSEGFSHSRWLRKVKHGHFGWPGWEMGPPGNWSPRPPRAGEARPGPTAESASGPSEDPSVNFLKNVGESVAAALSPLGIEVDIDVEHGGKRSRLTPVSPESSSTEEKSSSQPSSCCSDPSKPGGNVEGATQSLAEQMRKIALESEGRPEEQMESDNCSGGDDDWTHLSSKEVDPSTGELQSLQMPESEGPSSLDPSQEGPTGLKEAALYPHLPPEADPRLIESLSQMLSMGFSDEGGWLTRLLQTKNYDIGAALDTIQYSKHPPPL

SMILES | p62 activation and oligomerization, delivery to autophagosome, autophagy activity (p62 and LC3 puncta, local coexistence) (p62 and LC3) | autophagy activity (level of LC3) (LC3 [1]) | p62 protein oligomerization activity (monomer, oligomers and high-molecular aggregates) (p62 protein) | autophagy activity (level of LC3) (LC3 [2])
OCCNCc1ccc(OCc2ccc(F)cc2)c(OCc2ccc(F)cc2)c1 [YT-5-2, 2-((3,4-bis((4-fluorobenzyl)oxy)benzyl)amino)ethan-1-ol] | allow the activation and oligomerization of p62 proteins, and then show the efficacy of delivering them to autophagosome and simultaneously increasing autophagy activity | increasing the autophagy activity | increasing the p62 protein oligomerization activity | 
OCCNCc1cccc(OCCc2ccccc2)c1 [YTK-205, 2-((3-(phenethoxy)benzyl)amino)ethan-1-ol] | allow the activation and oligomerization of p62 proteins, and then show the efficacy of delivering them to autophagosome and simultaneously increasing autophagy activity | increasing the autophagy activity |  | increasing the autophagy activity
OCCNCc1ccc(OCc2ccccc2)c(OCCCc2ccccc2)c1 [YTK-1305, 2-((4-(benzyloxy)-3-(3-phenylpropoxy)benzyl)amino)ethan-1-ol] | allow the activation and oligomerization of p62 proteins, and then show the efficacy of delivering them to autophagosome and simultaneously increasing autophagy activity |  |  | increasing the autophagy activity
OCCNCc1ccc(OCc2ccc(Cl)cc2)c(OCc2ccc(Cl)cc2)c1 [YT-5-1, 2-((3,4-bis((4-chlorobenzyl)oxy)benzyl)amino)ethan-1-ol] | allow the activation and oligomerization of p62 proteins, and then show the efficacy of delivering them to autophagosome and simultaneously increasing autophagy activity | increasing the autophagy activity | increasing the p62 protein oligomerization activity | 
OCCNCc1ccc(OCc2ccccc2)c(OCCc2ccccc2)c1 [YTK-1205, 2-((4-(benzyloxy)-3-phenethoxybenzyl)amino)ethan-1-ol] | allow the activation and oligomerization of p62 proteins, and then show the efficacy of delivering them to autophagosome and simultaneously increasing autophagy activity |  |  | increasing the autophagy activity
OCCNCc1ccc(OCc2ccccc2)c(OCc2ccccc2)c1 [YTK-1105, 2-((3,4-bis(benzyloxy)benzyl)amino)ethan-1-ol] |  |  |  | increasing the autophagy activity
OCCNCc1cccc(OCc2ccc(Cl)cc2)c1 [YT 5-7, 2-((3-((4-chlorobenzyl)oxy)benzyl)amino)ethan-1-ol] |  |  | increasing the p62 protein oligomerization activity | increasing the autophagy activity
OCCNCc1ccc(OCCc2ccccc2)c(OCCc2ccccc2)c1 [YTK-2205, 2-((3,4-diphenethoxybenzyl)amino)ethan-1-ol] | allow the activation and oligomerization of p62 proteins, and then show the efficacy of delivering them to autophagosome and simultaneously increasing autophagy activity |  |  | increasing the autophagy activity
N=C(N)NCCNCc1cccc(OCc2ccccc2)c1 [YTK-107, 1-(2-((3-(benzyloxy)benzyl)amino)ethyl)guanidine] | allow the activation and oligomerization of p62 proteins, and then show the efficacy of delivering them to autophagosome and simultaneously increasing autophagy activity | increasing the autophagy activity | increasing the p62 protein oligomerization activity | 
OCCNCCNCc1ccc(OCc2ccccc2)c(OCc2ccccc2)c1 [YTK-1108, 2-((2-((3,4-bis(benzyloxy)benzyl)amino)ethyl)amino)ethan-1-ol] |  |  |  | increasing the autophagy activity
OCCNCc1cccc(OCc2ccc(F)cc2)c1 [YT 5-8, 2-((3-((4-fluorobenzyl)oxy)benzyl)amino)ethan-1-ol] |  |  | increasing the p62 protein oligomerization activity | increasing the autophagy activity
N=C(N)NCCNCc1cccc(OCCc2ccccc2)c1 [YTK-207] | allow the activation and oligomerization of p62 proteins, and then show the efficacy of delivering them to autophagosome and simultaneously increasing autophagy activity | increasing the autophagy activity | increasing the p62 protein oligomerization activity | 
OCCNCc1ccc(OCCCc2ccccc2)c(OCCCc2ccccc2)c1 [YTK-3305, 2-((3,4-bis(3-phenylpropoxy)benzyl)amino)ethan-1-ol] | allow the activation and oligomerization of p62 proteins, and then show the efficacy of delivering them to autophagosome and simultaneously increasing autophagy activity |  |  | increasing the autophagy activity
